From patent US20230159510A1, “NOVEL PRMT5 INHIBITORS” (AMGEN INC., priority 2020, published 2023)
Where two headings read alike, the source gives them in different places.

Columns and labels:
[1] = system: HCT116 MTAP null cells; assay: HCT116 proliferation assay, MTAP null cells (CellTiter-Glo, 6 days); type: cell-based; conditions: 144 h, read-out: Protif_ HCT116-MTAP null IC50
Outline: (§1)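 Both lines grow in RPMI 1640 containing 10% fetal bovine serum. After an overnight rest, they receive compound at up to 1 or 10 µM in threefold serial dilutions, with vehicle wells holding DMSO only.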

[2] = molecular target: PRMT5/MEP50 (Homo sapiens, UniProt O14744); assay: MTase-Glo methyl transferase assay, Method B (FL-Histone H2A, 1 µM MTA, 1 h pre-incubation); type: biochemical; design: purchased Reaction Biology Corp RD-11-292; conditions: read-out: PRMT5 MTase Glo Ki (nM, Meth. B)
PRMT5/MEP50, sequence (O14744 2-637 limits assumed): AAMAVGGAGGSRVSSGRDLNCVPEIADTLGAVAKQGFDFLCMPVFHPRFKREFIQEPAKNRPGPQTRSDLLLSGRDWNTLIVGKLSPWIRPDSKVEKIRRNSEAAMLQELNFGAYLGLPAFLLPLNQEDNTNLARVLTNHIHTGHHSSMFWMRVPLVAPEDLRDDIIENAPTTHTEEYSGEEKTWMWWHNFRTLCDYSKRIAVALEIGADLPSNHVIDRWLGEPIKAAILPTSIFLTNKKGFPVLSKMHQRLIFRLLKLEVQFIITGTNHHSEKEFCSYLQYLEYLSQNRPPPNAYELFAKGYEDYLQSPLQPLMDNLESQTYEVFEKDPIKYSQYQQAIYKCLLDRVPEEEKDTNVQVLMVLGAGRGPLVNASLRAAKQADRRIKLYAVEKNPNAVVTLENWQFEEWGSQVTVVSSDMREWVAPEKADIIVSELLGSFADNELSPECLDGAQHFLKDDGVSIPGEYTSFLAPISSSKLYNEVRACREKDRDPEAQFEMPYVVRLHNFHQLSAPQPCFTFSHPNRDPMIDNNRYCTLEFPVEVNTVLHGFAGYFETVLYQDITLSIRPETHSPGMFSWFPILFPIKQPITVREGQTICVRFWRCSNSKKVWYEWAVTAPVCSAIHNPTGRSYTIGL
PRMT5/MEP50, sequence (Q9BQA1 2-342 partner limits assumed): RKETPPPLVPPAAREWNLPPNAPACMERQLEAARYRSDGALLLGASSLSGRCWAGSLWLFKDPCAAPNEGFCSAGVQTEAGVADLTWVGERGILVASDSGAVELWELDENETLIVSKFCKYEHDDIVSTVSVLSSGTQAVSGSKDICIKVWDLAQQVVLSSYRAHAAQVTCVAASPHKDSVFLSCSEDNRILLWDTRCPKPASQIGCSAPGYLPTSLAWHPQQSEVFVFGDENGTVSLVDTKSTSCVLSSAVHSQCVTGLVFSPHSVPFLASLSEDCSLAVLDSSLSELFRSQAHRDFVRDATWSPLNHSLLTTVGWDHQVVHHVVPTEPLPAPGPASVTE
Outline: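 PRMT5/MEP50 (4 nM) was pre-incubated 1 h with compound, 5 µM SAM and 1 µM MTA, then started with 2.5 µM FL-Histone H2A in Tris pH 8.0 buffer. After 20 h at room temperature, SAH was detected by MTase-Glo luminescence, and IC50/KI were fitted from dose-response curves.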

[3] = system: HCT116 WT cells; assay: HCT116 proliferation assay, WT cells (CellTiter-Glo, 6 days); type: cell-based; conditions: Homo sapiens, HCT-116, 144 h, read-out: Prolif_HCT116-WT IC50
Outline: as §1

Structure (SMILES)	IC50 [1] [nM]	Ki [2] [nM]	IC50 [3] [nM]	IC50 ([1]; HCT116-MTAP null) [nM]
Cc1cc2cc(C(=O)N(Cc3ccc(C(F)(F)F)cn3)CC(C)C(F)(F)F)ccc2nc1N (stereo not drawn) [Example 591, 2-amino-3-methyl-N-(3,3,3-trifluoro-2-methylpropyl)-N-((5-(trifluoromethyl)pyridin-2-yl)methyl)quinoline-6-carboxamide]	456	16.5	> 1000	–
Cc1cc2cc(C(=O)N(Cc3cccc(O)c3)Cc3ccc(C(F)(F)F)cn3)ccc2nc1N [Example 600, 2-amino-N-[(3-hydroxyphenyl)methyl]-3-methyl-N-[[5-(trifluoromethyl)-2-pyridyl]methyl] quinoline-6-carboxamide]	–	1.83	> 1000	44
Cc1ccc2c(c1)C(N(Cc1ccc(C(F)(F)F)cn1)C(=O)c1ccc3nc(N)c(C)cc3c1)CC2 (stereo not drawn) [Example 624, 2-amino-3-methyl-N-(6-methyl-2,3-dihydro-1H-inden-1-yl)-N-((5-(trifluoromethyl)pyridin-2-yl)methyl)quinoline-6-carboxamide]	–	5.19	> 1000	187
Cc1cc2cc(C(=O)N(Cc3ccc(C(F)(F)F)cn3)CC3CCC3)ccc2nc1N [Example 562, 2-amino-N-(cyclobutylmethyl)-3-methyl-N-[[5-(trifluoromethyl)-2-pyridyl]methyl]quinoline-6-carboxamide]	–	3.76	> 1000	455
Cc1cc2cc(C(=O)N(Cc3ccc(C(F)(F)F)cn3)C3CCCc4nn(C)cc43)ccc2nc1N (stereo not drawn) [Example 605, 2-amino-3-methyl-N-(2-methyl-4,5,6,7-tetrahydro-2H-indazol-4-yl)-N-((5-(trifluoromethyl)pyridin-2-yl)methyl)quinoline-6-carboxamide]	–	6.2	> 1300	145
COC(CN(Cc1ccc(C(F)(F)F)cn1)C(=O)c1ccc2nc(N)c(C)cc2c1)C(C)C (stereo not drawn) [Example 613, 2-amino-N-(2-methoxy-3-methylbutyl)-3-methyl-N-((5-(trifluoromethyl)pyridin-2-yl)methyl)quinoline-6-carboxamide]	–	4.35	3900	269
Cc1cc2cc(C(=O)N(Cc3ccc(C(F)(F)F)cn3)C3COc4c3ccc(C)c4C)ccc2nc1N (stereo not drawn) [Example 610, 2-amino-N-(6,7-dimethyl-2,3-dihydrobenzofuran-3-yl)-3-methyl-N-((5-(trifluoromethyl)pyridin-2-yl)methyl)quinoline-6-carboxamide]	–	9.6	> 1000	540
Cc1cc2cc(C(=O)N(Cc3ccc(C(F)(F)F)cn3)CC3CCOCC3)ccc2nc1N [Example 683, 2-amino-3-methyl-N-(tetrahydropyran-4-ylmethyl)-N-[[5-(trifluoromethyl)-2-pyridyl]methyl] quinoline-6-carboxamide]	–	4.29	> 1000	297
Cc1cc2cc(C(=O)N(Cc3ccc(C(F)(F)F)cn3)C3CCCc4[nH]ccc43)ccc2nc1N (stereo not drawn) [Example 603, 2-amino-3-methyl-N-(4,5,6,7-tetrahydro-1H-indol-4-yl)-N-((5-(trifluoromethyl)pyridin-2-yl)methyl)quinoline-6-carboxamide]	–	23.7	> 1500	317
Cc1cc2cc(C(=O)N(Cc3ccc(C(F)(F)F)cn3)CC3CCn4ccnc4C3)ccc2nc1N (stereo not drawn) [Example 614, 2-amino-3-methyl-N-((5,6,7,8-tetrahydroimidazo [1,2-a]pyridin-7-yl)methyl)-N-((5-(trifluoromethyl)pyridin-2-yl)methyl)quinoline-6-carboxamide]	–	9.42	> 1000	950
Cc1cc2cc(C(=O)N(Cc3ccc(C(F)(F)F)cn3)C3CCCC3C#N)c(F)cc2nc1N (stereo not drawn) [Example 702, 2-amino-N-(2-cyanocyclopentyl)-7-fluoro-3-methyl-N-[[5-(trifluoromethyl)-2-pyridyl]methyl] quinoline-6-carboxamide]	–	5.12	560	46
Cc1cc2cc(C(=O)N(Cc3ccc(C(F)(F)F)cn3)CC(C)C3CC3)ccc2nc1N (stereo not drawn) [Example 575, 2-amino-N-(2-cyclopropylpropyl)-3-methyl-N-((5-(trifluoromethyl)pyridin-2-yl)methyl)quinoline-6-carboxamide]	–	2.89	> 1000	78
Cc1cc2cc(C(=O)N(Cc3ccc(C(F)(F)F)cn3)Cc3cc4c([nH]c3=O)CCC4)ccc2nc1N [Example 599, 2-amino-3-methyl-N-[(2-oxo-1,5,6,7-tetrahydrocyclopenta[b]pyridin-3-yl)methyl]-N-[[5-(trifluoromethyl)-2-pyridyl]methyl] quinoline-6-carboxamide]	–	3.12	> 1000	280
Cc1cc2cc(C(=O)N(Cc3ccc4ccoc4c3)Cc3ccc(C(F)(F)F)cn3)ccc2nc1N [Example 622, 2-amino-N-(benzofuran-6-ylmethyl)-3-methyl-N-((5-(trifluoromethyl)pyridin-2-yl)methyl)quinoline-6-carboxamide]	–	1.98	> 1000	130
Cc1cc2cc(C(=O)N(Cc3ccc(N)nc3)Cc3ccc(C(F)(F)F)cn3)ccc2nc1N [Example 568, 2-amino-N-[(6-amino-3-pyridyl)methyl]-3-methyl-N-[[5-(trifluoromethyl)-2-pyridyl]methyl] quinoline-6-carboxamide]	–	2 to 3	5550	130
Cc1cc2cc(C(=O)N(Cc3ccc(C(F)(F)F)cn3)C3CCc4[nH]ncc4C3)ccc2nc1N (stereo not drawn) [Example 672, 2-amino-3-methyl-N-(4,5,6,7-tetrahydro-1H-mdazol-5-yl)-N-[[5-(trifluoromethyl)-2-pyridyl]methyl] quinoline-6-carboxamide]	–	5.56	> 1000	404
Cc1cc2cc(C(=O)N(Cc3ccc(CC(N)=O)cc3)Cc3ccc(C(F)(F)F)cn3)ccc2nc1N [Example 680, 2-amino-N-[ [4-(2-amino-2-oxoethyl)phenyl]methyl]-3-methyl-N-[[5-(trifluoromethyl)-2-pyridyl]methyl] quinoline-6-carboxamide]	–	1.76	7700	157
Cc1cc(N)nc2ccc(C(=O)N(Cc3ccc(C(F)(F)F)cn3)Cc3ncn(C)n3)cc12 [Example 710, 2-amino-4-methyl-N-[(1-methyl-1,2,4-triazol-3-yl)methyl]-N-[[5-(trifluoromethyl)-2-pyridyl]methyl] quinoline-6-carboxamide]	–	4.13	1140	177
Cc1cc2cc(C(=O)N(Cc3cncc(F)c3)Cc3ccccc3F)ccc2nc1N [Example 590, 2-amino-N-(2-fluorobenzyl)-N-((5-fluoropyridin-3-yl)methyl)-3-methylquinoline-6-carboxamide]	–	14.9	6800	921
Cc1cc2cc(C(=O)N(Cc3ccc(C(F)(F)F)cn3)C3CCC(C)c4ccccc43)ccc2nc1N (stereo not drawn) [Example 602, 2-amino-3-methyl-N-(4-methyl-1,2,3,4-tetrahydronaphthalen-1-yl)-N-((5-(trifluoromethyl)pyridin-2-yl)methyl)quinoline-6-carboxamide]	–	7.26	> 1000	85
Cc1cc2cc(C(=O)N(Cc3ccc(C(F)(F)F)cn3)C3CCCc4c[nH]nc43)ccc2nc1N (stereo not drawn) [Example 631, 2-amino-3-methyl-N-(4,5,6,7-tetrahydro-2H-indazol-7-yl)-N-[[5-(trifluoromethyl)-2-pyridyl]methyl] quinoline-6-carboxamide]	–	7.14	–	28
Cc1cc2cc(C(=O)N(Cc3ccc(N4CCCC4)cc3)Cc3ccc(C(F)(F)F)cn3)ccc2nc1N [Example 646, 2-amino-3-methyl-N-[(4-pyrrolidin-1-ylphenyl)methyl]-N-[[5-(trifluoromethyl)-2-pyridyl]methyl] quinoline-6-carboxamide]	–	6.83	–	850
Cc1cc2cc(C(=O)N(Cc3ccc(C(F)(F)F)cn3)Cc3ccccc3-n3cccn3)ccc2nc1N [Example 654, 2-amino-3-methyl-N-[(2-pyrazol-1-ylphenyl)methyl]-N-[[5-(trifluoromethyl)-2-pyridyl]methyl] quinoline-6-carboxamide]	–	5.61	–	250
C#CCN(Cc1ccc(C(F)(F)F)cn1)C(=O)c1ccc2nc(N)c(C)cc2c1 [Example 655, 2-amino-3-methyl-N-prop-2-ynyl-N-[[5-(trifluoromethyl)-2-pyridyl]methyl] quinoline-6-carboxamide]	–	4 to 9	–	550
Cc1cc2cc(C(=O)N(Cc3cccc(-n4ccnc4)c3)Cc3ccc(C(F)(F)F)cn3)ccc2nc1N [Example 648, 2-amino-N-[(3-imidazol-1-ylphenyl)methyl]-3-methyl-N-[[5-(trifluoromethyl)-2-pyridyl]methyl] quinoline-6-carboxamide]	–	1.68	–	180
Cc1cc2cc(C(=O)N(Cc3cccc(-c4ncc[nH]4)c3)Cc3ccc(C(F)(F)F)cn3)ccc2nc1N [Example 650, 2-amino-N-[ [3-(1 H-imidazol-2-yl)phenyl]methyl] -3-methyl-N-[ [5-(trifluoromethyl)-2-pyridyl]methyl] quinoline-6-carboxamide]	–	2.21	–	370
